{"source": "patent US20120039926A1", "about": "“Compositions and Methods for Modulating Immunogenic Responses by Activating Dendritic Cells” (priority 2009, published 2012)", "key": {"[1]": {"system": "C57BL/6 bone marrow (BM) cells", "format": "cell-based, mouse", "conditions": "second day after treatment, 14.5 micromoles"}, "[2]": {"system": "A/J or C57BL/6 female mice", "format": "in vivo, mouse"}, "[3]": {"system": "A/J or C57BL/6 female mice", "format": "in vivo, mouse", "conditions": "sera of days 3, 10 and 24"}, "human monocytes": {"system": "human monocytes", "format": "cell-based", "conditions": "DC precursors (GMCSF and IL4), spent medium"}, "CD3- BM cells": {"system": "CD3- BM cells", "experiment": "Surface CD8 and intracellular IL-12p70 in CD3-depleted bone marrow cells", "format": "cell-based, mouse", "conditions": "BM cells after treatment", "from_the_text": "CD3+ cells were removed from BM cells using the fluorescence activated cell sorter and then untreated or treated with JgD or JH. Flow cytometric analysis of the sorted population confirmed the removal of CD3 positive cells. The CD3− BM cells were labeled with FITC-anti-CD8 (Beckman Coulter (clone 53-6.7)), fixed with paraformaldehyde, permeabilized with saponin (Intraprep, Immunotech), labeled with PE-anti-IL-12p70 (Beckman Coulter) and then post fixed with paraformaldehyde prior to immunofluorescence analysis."}, "BM cells": {"system": "BM cells", "experiment": "Protein array of spent medium from treated BM cells", "format": "cell-based, mouse", "protocol": "Bone marrow (BM) cells were prepared. Briefly, the femurs and tibias were obtained from five C57BL/6 female mice, and the ends were removed to expose the hollow bone packed with marrow. BM cells were flushed from the bones with cold Hanks Balanced Salt Solution (HBSS) using a sterile disposable 22 g needle and pooled. Red blood cells (RBCs) were lysed using Tris-buffered ammonium chloride and resultant cells were washed 3 times in HBSS. BM cells were suspended in tissue culture medium (TCM) (RPMI 1640 with glutaminie plus […] PenStrep, 50 uM 2-mercaptoethanol, and 5% fetal calf serum) at approximately 5×10^6 cells/ml and incubated for 1 hour at 37° C. in a 5% CO2 atmosphere in plastic tissue culture flasks to remove adherent, mature macrophages. Decanted non-adherent cells were resuspended in TCM and 1.5×10^6 BM cells in 1 ml were placed into each well of a 24-well tissue culture plate (Falcon) and either left untreated or treated with 14.5 micromoles of J, gD, JgD or JH vaccines. After incubation for 48 hrs at 37° C., cells were viewed and photographed for changes in morphology, tissue culture supernatants were removed and the cells were prepared for flow cytometric analysis."}}}
{"substance": "J-ICBL: immune cell binding ligand, amino acid 38-50 from the β-2-microglobulin (DLLKNGERIEKVE), unconjugated", "values": [{"measurement": "CD11c expression on monocyte population of BM cells", "setting": "[1]", "value": "no discernable change"}, {"measurement": "CD86 expression on monocyte population of BM cells", "setting": "[1]", "value": "no discernable change"}, {"measurement": "IL-10 serum level relative to adjuvant control", "setting": "[2]", "value": "significantly decreased to only a half or to a third"}, {"measurement": "IL-12p40 serum level", "setting": "[2]; versus adjuvant control", "value": "small but not significant increase"}, {"measurement": "IL-12p70 serum level", "setting": "[2]; versus adjuvant control", "value": "small but not significant increase"}, {"measurement": "IL-12p70 in sera (direct ELISA), in words", "setting": "[3]", "value": "only trace or undetectable amounts"}, {"measurement": "production of cytokines (protein array)", "setting": "human monocytes", "value": "no significant production of cytokines"}, {"measurement": "IL-12p70 expressing cells", "setting": "CD3- BM cells", "value": "no significant increase"}, {"measurement": "cytokine response in spent medium of treated BM cells", "setting": "BM cells", "value": "failed to detect a cytokine response"}]}
